Laboratory results reported in patent US11111245B2, “Derivatives of N-cycloalkyl/heterocycloalkyl-4-(imidazo[1,2-a]pyridine)pyrimidin-2-amine as therapeutic agents” (Aucentra Therapeutics Pty Ltd, priority 2017, dated 2021).

What was measured:
[1] = biological target: CDK9/T1 (Homo sapiens, UniProt P50750); experiment: ADP Glo Kinase assay CDK9/T1; type: biochemical; settings: CDK9T1; read-out: CDK inhibition, Ki (μM) CDK9T1
Outline: (§1)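 ADP Glo luminescence, in-house: CDK4/D1, CDK6/D3 on RB-CTF substrate (Tris pH 7.5, MgCl2, DTT, BSA); CDK9/T1 on RBER-IRStide. Reaction 40 min, 37° C after ATP addition. 10-point 1:3 series, 10 μM to 0.5 nM. IC50 by 4-parameter logistic; Ki derived using ATP Km.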

[2] = tested on: leukemia cell lines; experiment: Resazurin cell viability assay on leukemia cell lines (72 h growth inhibition, GI50); type: cell-based; settings: Homo sapiens, MV4-11 cells
Outline: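 Cells were exposed to compound, then viability was read by MTT (solid tumour lines) or resazurin reduction (leukaemia lines). Non-linear regression gave the concentration inhibiting 50% of cell growth.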

[3] = biological target: CDK6/D3 (Homo sapiens, UniProt Q00534); experiment: ADP Glo Kinase assay CDK6/D3; type: biochemical; settings: CDK6D3; for remaining activity at 10 µM: compound at 10 μM, read-out: residual activity (%) at 10 μM CDK6D3
CDK6/D3, sequence (Q00534 whole entry): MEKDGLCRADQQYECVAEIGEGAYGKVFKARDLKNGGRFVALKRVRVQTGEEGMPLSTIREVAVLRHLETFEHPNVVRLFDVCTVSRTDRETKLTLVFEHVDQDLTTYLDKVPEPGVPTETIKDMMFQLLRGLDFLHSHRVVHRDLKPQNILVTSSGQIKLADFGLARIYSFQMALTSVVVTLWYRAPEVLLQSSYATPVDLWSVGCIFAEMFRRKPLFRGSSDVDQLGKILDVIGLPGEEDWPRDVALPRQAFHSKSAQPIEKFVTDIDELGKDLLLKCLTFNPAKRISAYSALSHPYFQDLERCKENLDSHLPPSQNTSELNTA
CDK6/D3, sequence (P30281 whole entry partner): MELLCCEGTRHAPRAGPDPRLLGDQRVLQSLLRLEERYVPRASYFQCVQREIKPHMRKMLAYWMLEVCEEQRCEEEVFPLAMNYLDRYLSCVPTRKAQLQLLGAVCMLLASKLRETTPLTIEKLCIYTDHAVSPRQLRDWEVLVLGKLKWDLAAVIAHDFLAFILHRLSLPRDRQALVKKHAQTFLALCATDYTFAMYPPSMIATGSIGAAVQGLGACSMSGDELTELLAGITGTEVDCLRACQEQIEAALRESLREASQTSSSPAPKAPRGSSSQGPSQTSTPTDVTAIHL
Outline: as §1

[4] = biological target: T1, CDKs and other kinases (Homo sapiens, UniProt P06493); experiment: Radiometric kinase assay (Eurofins Pharma Discovery or Reaction Biology Corporation Kinase Profiler); type: biochemical; settings: CDK1B; for remaining activity at 10 µM: compound at 10 μM, read-out: residual activity (%) at 10 μM CDK1B; for Ki: read-out: CDK inhibition, Ki (μM) CDK1B
T1 construct: other: CDK1B; residual activity (%) at 10 μM CDK1B; compound at 10 μM
T1 sequence (P06493 whole entry): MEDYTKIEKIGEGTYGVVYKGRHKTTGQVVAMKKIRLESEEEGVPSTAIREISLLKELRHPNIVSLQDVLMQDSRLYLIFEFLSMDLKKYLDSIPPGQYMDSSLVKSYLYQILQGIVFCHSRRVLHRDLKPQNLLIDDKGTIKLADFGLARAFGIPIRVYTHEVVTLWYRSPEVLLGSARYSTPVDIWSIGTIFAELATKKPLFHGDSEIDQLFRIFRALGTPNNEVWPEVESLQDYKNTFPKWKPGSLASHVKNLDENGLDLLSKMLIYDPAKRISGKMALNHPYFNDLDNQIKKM
Outline: (§2)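 Other CDKs and further kinases were profiled externally by radiometric assay. In-house ADP Glo assays covered CDK4/D1 and CDK6/D3 (RB-CTF substrate, pH 7.5 Tris buffer with MgCl2, DTT, BSA) and CDK9/T1 (RBER-IRStide substrate), 40 min at 37° C.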

[5] = biological target: T2, CDKs and other kinases (Homo sapiens, UniProt P50613); experiment: as above; type: biochemical; settings: CDK7H; for remaining activity at 10 µM: compound at 10 μM, read-out: residual activity (%) at 10 μM CDK7H; for Ki: read-out: CDK inhibition, Ki (μM) CDK7H
T2 construct: other: CDK7H; residual activity (%) at 10 μM CDK7H; compound at 10 μM
T2 sequence (P50613 whole entry): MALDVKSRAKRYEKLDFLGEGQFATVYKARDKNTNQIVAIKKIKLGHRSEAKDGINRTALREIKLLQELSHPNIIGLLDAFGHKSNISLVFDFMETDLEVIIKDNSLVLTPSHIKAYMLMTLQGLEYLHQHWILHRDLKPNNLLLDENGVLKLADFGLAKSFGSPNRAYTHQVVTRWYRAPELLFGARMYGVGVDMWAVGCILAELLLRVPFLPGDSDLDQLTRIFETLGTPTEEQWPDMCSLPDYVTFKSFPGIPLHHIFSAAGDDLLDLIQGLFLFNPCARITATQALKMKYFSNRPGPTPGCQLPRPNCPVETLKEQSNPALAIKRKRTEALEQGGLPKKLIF
Outline: as §2

[6] = biological target: T3, CDKs and other kinases (Homo sapiens, UniProt P24941); experiment: as above; type: biochemical; settings: CDK2A; for remaining activity at 10 µM: compound at 10 μM, read-out: residual activity (%) at 10 μM CDK2A; for Ki: read-out: CDK inhibition, Ki (μM) CDK2A
T3 construct: other: CDK2A; residual activity (%) at 10 μM CDK2A; compound at 10 μM
Outline: as §2

[7] = biological target: CDK4/D1 (Homo sapiens, UniProt P11802); experiment: ADP Glo Kinase assay CDK4/D1; type: biochemical; settings: CDK4D1; for remaining activity at 10 µM: compound at 10 μM, read-out: residual activity (%) at 10 μM CDK4D1
CDK4/D1, sequence (P11802 whole entry): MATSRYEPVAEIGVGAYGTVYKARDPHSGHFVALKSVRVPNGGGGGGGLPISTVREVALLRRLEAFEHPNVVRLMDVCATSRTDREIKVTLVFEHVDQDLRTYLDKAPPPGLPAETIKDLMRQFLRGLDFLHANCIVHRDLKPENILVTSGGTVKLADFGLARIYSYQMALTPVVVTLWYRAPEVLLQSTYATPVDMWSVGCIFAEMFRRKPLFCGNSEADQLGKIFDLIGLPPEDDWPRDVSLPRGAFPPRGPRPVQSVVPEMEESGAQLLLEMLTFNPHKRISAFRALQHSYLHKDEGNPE
CDK4/D1, sequence (P24385 whole entry partner): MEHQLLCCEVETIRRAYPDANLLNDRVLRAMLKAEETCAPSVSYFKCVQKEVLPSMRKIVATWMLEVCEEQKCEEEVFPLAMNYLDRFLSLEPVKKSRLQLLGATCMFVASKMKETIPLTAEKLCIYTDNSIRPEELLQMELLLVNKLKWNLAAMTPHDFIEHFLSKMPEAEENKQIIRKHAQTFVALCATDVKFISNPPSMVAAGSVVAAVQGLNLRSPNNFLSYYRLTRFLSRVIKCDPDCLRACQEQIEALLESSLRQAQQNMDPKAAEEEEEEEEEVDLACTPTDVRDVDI
Outline: as §1

CDK9/T1, sequence (P50750 whole entry): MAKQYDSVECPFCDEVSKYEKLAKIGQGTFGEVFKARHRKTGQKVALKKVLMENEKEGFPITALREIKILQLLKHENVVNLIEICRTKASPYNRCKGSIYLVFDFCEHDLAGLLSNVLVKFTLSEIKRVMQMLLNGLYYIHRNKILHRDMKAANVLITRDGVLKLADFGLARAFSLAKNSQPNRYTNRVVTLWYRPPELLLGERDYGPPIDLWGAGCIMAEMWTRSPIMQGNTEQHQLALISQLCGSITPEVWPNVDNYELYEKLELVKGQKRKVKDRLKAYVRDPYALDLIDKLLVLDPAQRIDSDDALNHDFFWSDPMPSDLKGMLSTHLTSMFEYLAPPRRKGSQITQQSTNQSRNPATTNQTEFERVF
CDK9/T1, sequence (O60563 whole entry partner): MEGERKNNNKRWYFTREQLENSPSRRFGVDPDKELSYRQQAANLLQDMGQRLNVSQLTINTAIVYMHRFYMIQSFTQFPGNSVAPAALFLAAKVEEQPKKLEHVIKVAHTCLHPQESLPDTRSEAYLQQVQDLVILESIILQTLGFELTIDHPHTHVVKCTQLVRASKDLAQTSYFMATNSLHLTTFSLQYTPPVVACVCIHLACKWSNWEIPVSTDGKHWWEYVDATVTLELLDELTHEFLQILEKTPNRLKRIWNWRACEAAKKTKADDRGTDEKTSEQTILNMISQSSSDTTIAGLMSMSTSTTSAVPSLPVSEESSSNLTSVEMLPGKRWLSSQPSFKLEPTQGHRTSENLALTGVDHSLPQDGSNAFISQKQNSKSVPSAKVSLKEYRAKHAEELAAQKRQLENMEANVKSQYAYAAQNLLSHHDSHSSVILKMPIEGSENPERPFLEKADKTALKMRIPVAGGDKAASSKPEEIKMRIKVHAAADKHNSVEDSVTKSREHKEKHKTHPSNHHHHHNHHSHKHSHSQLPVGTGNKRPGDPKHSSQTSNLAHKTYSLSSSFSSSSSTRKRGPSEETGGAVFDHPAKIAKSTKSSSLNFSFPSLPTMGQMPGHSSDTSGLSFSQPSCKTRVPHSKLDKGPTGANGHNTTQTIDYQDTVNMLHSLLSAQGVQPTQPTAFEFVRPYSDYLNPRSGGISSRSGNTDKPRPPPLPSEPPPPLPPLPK

Work on `Cc1cnc(N[C@H]2CC[C@@H](N)CC2)nc1-c1cnc2ccc(-c3ccccc3)cn12` [Compound 91, (1s,4s)-N^1-(5-Methyl-4-(6-phenylimidazo[1,2-a]pyridin-3-yl)pyrimidin-2-yl)cyclohexane-1,4-diamine] yielded a Ki [1] of 0.082 µM, a GI50 [2] of 0.014 ± 0.007 µM and a remaining activity at 10 µM [3] of 41%. For the same compound, the remaining activity at 10 µM [4] was 5%, the remaining activity at 10 µM [5] was 19% and the remaining activity at 10 µM [6] was 7%. The remaining activity at 10 µM [7] was 17%.
For `N[C@H]1CC[C@H](Nc2ncc(F)c(-c3cnc4cc(-c5cccnc5)ccn34)n2)CC1` [Compound 45, (1r,4r)-N^1-(5-Fluoro-4-(7-(pyridin-3-yl)imidazo[1,2-a]pyridin-3-yl)pyrimidin-2-yl)cyclohexane-1,4-diamine], the Ki [1] was 0.006 µM, the GI50 [2] was under 0.001 µM and the remaining activity at 10 µM [3] was 0%. For the same compound, the remaining activity at 10 µM [4] was 0%, the remaining activity at 10 µM [5] was 2% and the remaining activity at 10 µM [6] was 0%. The remaining activity at 10 µM [7] was 5%.
In the case of `Cc1cnc(N[C@H]2CC[C@H](N)CC2)nc1-c1cnc2ccccn12` [Compound 8, (1r,4r)-N^1-(4-(Imidazo[1,2-a]pyridin-3-yl)-5-methylpyrimidin-2-yl)cyclohexane-1,4-diamine], the Ki [1] is reported as 0.035 µM, the GI50 [2] is reported as 0.066 ± 0.007 µM and the remaining activity at 10 µM [3] is reported as 34%. It also gave a Ki [4] of 3.81 µM, a Ki [5] of 0.38 µM and a Ki [6] of 0.35 µM. The remaining activity at 10 µM [7] was 11%.
Work on `Cc1cnc(N[C@]23C[C@@]4(C)C[C@](C)(C[C@](O)(C4)C2)C3)nc1-c1cnc2ccc(-c3ccccc3)cn12` [Compound 100, (1s,3R,5S,7r)-3,5-Dimethyl-7-((5-methyl-4-(6-phenylimidazo[1,2-a]pyridin-3-yl)pyrimidin-2-yl)amino)adamantan-1-ol] yielded a Ki [1] of over 5 µM, a GI50 [2] of over 10 µM and a remaining activity at 10 µM [3] of 84%. It also gave a remaining activity at 10 µM [4] of 87%, a remaining activity at 10 µM [5] of 98% and a remaining activity at 10 µM [6] of 79%. The remaining activity at 10 µM [7] was 96%.
For `N[C@H]1CC[C@H](Nc2ncc(F)c(-c3cnc4ccc(NC(=O)c5ccc(F)cc5)cn34)n2)CC1` [Compound 51, N-(3-(2-(((1r,4r)-4-Aminocyclohexyl)amino)-5-fluoropyrimidin-4-yl)imidazo[1,2-a]pyridin-6-yl)-4-fluorobenzamide], the Ki [1] was 0.006 µM, the GI50 [2] was 0.001 µM and the remaining activity at 10 µM [3] was 22%. For the same compound, the remaining activity at 10 µM [4] was 4%, the remaining activity at 10 µM [5] was 6% and the remaining activity at 10 µM [6] was 4%. It also gave a remaining activity at 10 µM [7] of 0%.
In the case of `Cc1cnc(N[C@H]2CC[C@H](N)CC2)nc1-c1cnc2cc(-c3ccccc3)ccn12` [Compound 53, (1r,4r)-N^1-(5-Methyl-4-(7-phenylimidazo[1,2-a]pyridin-3-yl)pyrimidin-2-yl)cyclohexane-1,4-diamine], the Ki [1] is reported as 0.049 µM, the GI50 [2] is reported as 0.002 ± 0.001 µM and the remaining activity at 10 µM [3] is reported as 0%. For the same compound, the remaining activity at 10 µM [4] was 18%, the remaining activity at 10 µM [5] was 5% and the remaining activity at 10 µM [6] was 3%. For the same compound, the remaining activity at 10 µM [7] was 0%.
Work on `CN(C)S(=O)(=O)c1ccc(-c2ccc3ncc(-c4nc(N[C@H]5CC[C@H](N)CC5)ncc4F)n3c2)cc1` [Compound 48, 4-(3-(2-(((1r,4r)-4-Aminocyclohexyl)amino)-5-fluoropyrimidin-4-yl)imidazo[1,2-a]pyridin-6-yl)-N,N-dimethylbenzenesulfonamide] yielded a Ki [1] of 0.004 µM, a GI50 [2] of 0.002 µM and a remaining activity at 10 µM [3] of 45%. It also gave a remaining activity at 10 µM [4] of 13%, a remaining activity at 10 µM [5] of 8% and a remaining activity at 10 µM [6] of 3%. It also gave a remaining activity at 10 µM [7] of 4%.
`N[C@H]1CC[C@H](Nc2ncc(F)c(-c3cnc4ccc(NC(=O)Cc5ccccc5)cn34)n2)CC1` [Compound 52, N-(3-(2-(((1r,4r)-4-Aminocyclohexyl)amino)-5-fluoropyrimidin-4-yl)imidazo[1,2-a]pyridin-6-yl)-2-phenylacetamide] was tested, and the Ki [1] was 0.013 µM, the GI50 [2] was 0.008 ± 0.003 µM and the remaining activity at 10 µM [3] was 21%. For the same compound, the remaining activity at 10 µM [4] was 6%, the remaining activity at 10 µM [5] was 6% and the remaining activity at 10 µM [6] was 7%. For the same compound, the remaining activity at 10 µM [7] was 4%.
`N[C@H]1CC[C@H](Nc2ncc(F)c(-c3cnc4cc(Cl)ccn34)n2)CC1` [Compound 43, (1r,4r)-N^1-(4-(7-Chloroimidazo[1,2-a]pyridin-3-yl)-5-fluoropyrimidin-2-yl)cyclohexane-1,4-diamine] was tested, and the Ki [1] was 0.008 µM, the GI50 [2] was 0.004 ± 0.001 µM and the remaining activity at 10 µM [3] was 2%. The remaining activity at 10 µM [4] was 4%, the remaining activity at 10 µM [5] was 3% and the remaining activity at 10 µM [6] was 1%. For the same compound, the remaining activity at 10 µM [7] was 0%.
In the case of `Fc1cnc(N[C@H]2CC[C@H](Nc3ccccn3)CC2)nc1-c1cnc2ccc(-c3ccccc3)cn12` [Compound 28, (1r,4r)-N^1-(5-Fluoro-4-(6-phenylimidazo[1,2-a]pyridin-3-yl)pyrimidin-2-yl)-N4-(pyridin-2-yl)cyclohexane-1,4-diamine], the Ki [1] is reported as 0.85 µM, the GI50 [2] is reported as 0.042 ± 0.017 µM and the remaining activity at 10 µM [3] is reported as 100%. The remaining activity at 10 µM [4] was 4%, the remaining activity at 10 µM [5] was 2% and the remaining activity at 10 µM [6] was 8%. The remaining activity at 10 µM [7] was 95%.
In the case of `Cc1cnc(N[C@H]2CC[C@H](N)CC2)nc1-c1cnc2ccc(Nc3ccc(OC(F)F)nc3)cn12` [Compound 68, (1r,4r)-N^1-(4-(6-((6-(Difluoromethoxy)pyridin-3-yl)amino)imidazo[1,2-a]pyridin-3-yl)-5-methylpyrimidin-2-yl) cyclohexane-1,4-diamine], the Ki [1] is reported as 0.033 µM, the GI50 [2] is reported as 0.127 ± 0.002 µM and the remaining activity at 10 µM [3] is reported as 23%. For the same compound, the Ki [4] was 2.18 µM, the Ki [5] was 0.71 µM and the Ki [6] was 0.35 µM. It also gave a remaining activity at 10 µM [7] of 37%.
Work on `Cc1cnc(NC2CCC(N(C)C)CC2)nc1-c1cnc2ccc(Nc3cncnc3)cn12` (stereo not shown) [Compound 99, N^1,N^1-dimethyl-N^4-(5-Methyl-4-(6-(pyrimidin-5-ylamino)imidazo[1,2-a]pyridin-3-yl)pyrimidin-2-yl)cyclohexane-1,4-diamine] yielded a Ki [1] of 0.006 µM, a GI50 [2] of 0.265 ± 0.034 µM and a Ki ([3]; read-out: CDK inhibition, Ki (μM) CDK6D3) of 0.51 µM. For the same compound, the Ki [4] was 1.66 µM, the Ki [5] was 3.1 µM and the Ki [6] was 0.48 µM. The Ki ([7]; read-out: CDK inhibition, Ki (μM) CDK4D1) was 1.16 µM.
With `N[C@H]1CC[C@H](Nc2ncc(F)c(-c3cnc4ccc(C(F)(F)F)cn34)n2)CC1` [Compound 3, (1r,4r)-N^1-(5-Fluoro-4-(6-(trifluoromethyl)imidazo[1,2-a]pyridin-3-yl)pyrimidin-2-yl)cyclohexane-1,4-diamine] the Ki [1] was 0.006 µM, the GI50 [2] was under 0.001 µM and the remaining activity at 10 µM [3] was 46%. The Ki [4] was 0.084 µM, the Ki [5] was 0.019 µM and the Ki [6] was 0.023 µM. For the same compound, the remaining activity at 10 µM [7] was 0%.
In the case of `Cc1cnc(N[C@H]2CC[C@H](N)CC2)nc1-c1cnc2ccc(-c3ccncc3)cn12` [Compound 37, (1r,4r)-N^1-(5-Methyl-4-(6-(pyridin-4-yl)imidazo[1,2-a]pyridin-3-yl)pyrimidin-2-yl)cyclohexane-1,4-diamine], the Ki [1] is reported as 0.12 µM, the GI50 [2] is reported as 0.013 ± 0.002 µM and the remaining activity at 10 µM [3] is reported as 96%. For the same compound, the Ki [4] was 0.17 µM, the Ki [5] was 1.18 µM and the Ki [6] was 0.044 µM. The remaining activity at 10 µM [7] was 7%.
`Cc1cnc(N[C@H]2CC[C@H](N)CC2)nc1-c1cnc2ccc(-c3ccc(N4CCOCC4)nc3)cn12` [Compound 61, (1r,4r)-N^1-(5-Methyl-4-(6-(6-morpholinopyridin-3-yl)imidazo[1,2-a]pyridin-3-yl)pyrimidin-2-yl)cyclohexane-1,4-diamine] showed a Ki [1] of 0.49 µM, a GI50 [2] of 0.083 ± 0.035 µM and a remaining activity at 10 µM [3] of 89%. For the same compound, the remaining activity at 10 µM [4] was 79%, the remaining activity at 10 µM [5] was 37% and the remaining activity at 10 µM [6] was 63%. The remaining activity at 10 µM [7] was 17%.
`Cc1cnc(N[C@H]2CC[C@H](N)CC2)nc1-c1cnc2ccc(-c3cccnc3)cn12` [Compound 29, (1r,4r)-N^1-(5-Methyl-4-(6-(pyridin-3-yl)imidazo[1,2-a]pyridin-3-yl)pyrimidin-2-yl)cyclohexane-1,4-diamine] was tested, and the Ki [1] was 0.051 µM, the GI50 [2] was 0.101 ± 0.039 µM and the remaining activity at 10 µM [3] was 45%. It also gave a Ki [4] of 3.57 µM, a Ki [5] of 2.73 µM and a Ki [6] of 1.83 µM. For the same compound, the remaining activity at 10 µM [7] was 17%.
